From patent US20130040845A1, “METHOD FOR SCREENING RECEPTORS/LIGANDS INTERACTIONS” (IMMUNE DISEASE INSTITUTE, INC., priority 2010, published 2013)

Experiments:
[1] = target: T1, RARβ receptor (Homo sapiens, UniProt P10826); conditions: cited from earlier work
T1 sequence (P10826 1-455): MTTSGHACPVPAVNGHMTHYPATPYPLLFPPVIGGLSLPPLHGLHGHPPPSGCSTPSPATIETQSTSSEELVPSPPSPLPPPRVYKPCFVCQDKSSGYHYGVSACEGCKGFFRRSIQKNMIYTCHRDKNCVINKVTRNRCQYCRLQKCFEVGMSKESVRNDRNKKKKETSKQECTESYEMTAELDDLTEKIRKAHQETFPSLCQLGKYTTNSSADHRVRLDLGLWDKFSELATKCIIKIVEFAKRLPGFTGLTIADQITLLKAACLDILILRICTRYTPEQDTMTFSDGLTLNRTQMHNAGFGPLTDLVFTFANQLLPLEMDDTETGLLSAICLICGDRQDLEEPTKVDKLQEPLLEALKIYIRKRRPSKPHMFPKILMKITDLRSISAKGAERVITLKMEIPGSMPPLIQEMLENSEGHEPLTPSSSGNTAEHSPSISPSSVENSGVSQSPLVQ

[2] = target: T2, RARγ receptor (Homo sapiens, UniProt P13631); conditions: cited from earlier work
T2 sequence (P13631 1-454): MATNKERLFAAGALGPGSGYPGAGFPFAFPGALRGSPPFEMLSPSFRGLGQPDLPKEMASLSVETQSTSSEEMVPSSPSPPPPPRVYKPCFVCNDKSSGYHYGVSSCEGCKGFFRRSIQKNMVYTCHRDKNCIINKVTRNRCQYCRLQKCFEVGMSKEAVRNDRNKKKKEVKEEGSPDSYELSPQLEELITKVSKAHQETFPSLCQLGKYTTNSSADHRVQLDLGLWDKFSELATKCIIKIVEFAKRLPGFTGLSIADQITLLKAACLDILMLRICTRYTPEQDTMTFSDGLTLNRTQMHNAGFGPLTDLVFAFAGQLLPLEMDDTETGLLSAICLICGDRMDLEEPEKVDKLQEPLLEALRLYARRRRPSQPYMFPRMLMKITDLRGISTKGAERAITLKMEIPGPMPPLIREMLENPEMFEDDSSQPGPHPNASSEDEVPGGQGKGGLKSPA

[3] = target: T3, RARα receptor (Homo sapiens, UniProt P10276); conditions: cited from earlier work
T3 sequence (P10276 1-462): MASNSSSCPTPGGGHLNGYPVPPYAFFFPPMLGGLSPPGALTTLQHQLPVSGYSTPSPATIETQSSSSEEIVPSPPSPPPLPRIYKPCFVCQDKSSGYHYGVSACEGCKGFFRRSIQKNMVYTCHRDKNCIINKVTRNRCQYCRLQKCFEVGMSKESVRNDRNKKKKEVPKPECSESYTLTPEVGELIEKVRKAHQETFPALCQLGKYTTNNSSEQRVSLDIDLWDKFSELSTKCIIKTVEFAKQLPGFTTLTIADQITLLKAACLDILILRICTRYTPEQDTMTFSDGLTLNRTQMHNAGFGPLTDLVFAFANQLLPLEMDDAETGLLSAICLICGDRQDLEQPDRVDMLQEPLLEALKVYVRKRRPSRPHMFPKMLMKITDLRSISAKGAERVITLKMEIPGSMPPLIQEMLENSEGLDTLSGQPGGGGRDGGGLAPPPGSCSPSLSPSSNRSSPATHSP

[4] = target: T4, VWF A1 domain/GPIbα interaction (Homo sapiens, UniProt P04275+P07359); assay: Single-molecule optical tweezer force-extension (pulling) assay on covalently tethered A1-GPIbα chimeric fusion polypeptide; assay type: binding; conditions: presence vs absence of activator, fixed pulling rate (FIG. 5D-5F)
T4 construct: human VWF A1 domain (Ile1262 to Pro1466 with pre-pro-VWF numbering); human platelet GPIbα (His1 to Arg290) were PCR-amplified; made in house; host or cells: HEK293T
T4 sequence (P04275 1262-1466): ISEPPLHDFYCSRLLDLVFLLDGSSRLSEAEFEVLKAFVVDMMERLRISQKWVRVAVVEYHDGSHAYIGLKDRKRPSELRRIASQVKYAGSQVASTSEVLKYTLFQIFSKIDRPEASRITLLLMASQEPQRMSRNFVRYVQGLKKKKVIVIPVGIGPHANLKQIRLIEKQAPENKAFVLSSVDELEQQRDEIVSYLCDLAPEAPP
T4 sequence (P07359 17-306): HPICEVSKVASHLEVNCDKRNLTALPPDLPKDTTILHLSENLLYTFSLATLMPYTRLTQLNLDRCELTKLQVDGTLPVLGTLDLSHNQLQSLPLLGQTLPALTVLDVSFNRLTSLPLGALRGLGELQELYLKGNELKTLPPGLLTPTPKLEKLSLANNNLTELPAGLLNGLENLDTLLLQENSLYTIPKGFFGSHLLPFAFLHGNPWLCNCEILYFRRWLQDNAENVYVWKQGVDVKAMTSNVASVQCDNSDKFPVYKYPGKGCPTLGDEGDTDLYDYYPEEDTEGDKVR
Excerpt: In the example described herein, the inventors tethered this single polypeptide to the solid surfaces of two different microspheres using double-stranded DNA (dsDNA) handles. One end of the chimeric polypeptide was tethered to a first dsDNA handle and the other end of the polypeptide was tethered to a second dsDNA handle. The polypeptide was coupled to the dsDNA handles via S—S-bond or disulfide bridges. The free ends of the dsDNA were then linked to digoxigenin or biotin (see FIGS. 3A, 4B & 4C, 10). The dsDNA coupled A1/GPIbα polypeptide was then mixed with beads that were coated with either anti-digoxigenin or streptavidin. The inventors then manipulated the beads with a pipette and a focus laser beam from an optical tweezer to stretch out or extend the A1/GPIbα polypeptide in order to study the minute forces, in pico Newtons (pN), required to dissociate the VWF A1 domain/GPIbα interaction. […] In addition, the inventors measured the extensions of the VWF A1 domain/GPIbα polypeptide that are required to keep the extension force constant. […]
In the example, the inventors monitored the forces applied to the A1/GPIbα polypeptide that is required to extend or stretch out the polypeptide from a ligand-bound state to a ligand-unbonud state with an optical tweezer (see FIG. 8 for the ligand bound and non-ligand bound state of the A1/GPIbα polypeptide). […]

Molecule | Kd [1] | Kd [2] | Kd [3] | average dissociative/unbinding force for the A1/GPIbα interaction [4]
O=C(O)c1ccc(-c2ccc3cc(O)c(C45CC6CC(CC(C6)C4)C5)cc3c2)cc1 [CD 1530, 4-(6-Hydroxy-7-tricyclo[3.3.1.13,7]dec-1-yl-2-naphthalenyl) benzoic acid] | 1500 nM | 150 nM | 2750 nM | –
botrocetin | – | – | – | increased the average dissociative/unbinding force
ristocetin | – | – | – | increased the average dissociative/unbinding force
